Results taken from ChEMBL document CHEMBL4190355, “Allosteric Modulators of the M4 Muscarinic Acetylcholine Receptor” (ACS Med Chem Lett, 2017).

Target: T1, Muscarinic acetylcholine receptor M4 (Homo sapiens) (UniProt P08173)
T1 sequence (whole entry): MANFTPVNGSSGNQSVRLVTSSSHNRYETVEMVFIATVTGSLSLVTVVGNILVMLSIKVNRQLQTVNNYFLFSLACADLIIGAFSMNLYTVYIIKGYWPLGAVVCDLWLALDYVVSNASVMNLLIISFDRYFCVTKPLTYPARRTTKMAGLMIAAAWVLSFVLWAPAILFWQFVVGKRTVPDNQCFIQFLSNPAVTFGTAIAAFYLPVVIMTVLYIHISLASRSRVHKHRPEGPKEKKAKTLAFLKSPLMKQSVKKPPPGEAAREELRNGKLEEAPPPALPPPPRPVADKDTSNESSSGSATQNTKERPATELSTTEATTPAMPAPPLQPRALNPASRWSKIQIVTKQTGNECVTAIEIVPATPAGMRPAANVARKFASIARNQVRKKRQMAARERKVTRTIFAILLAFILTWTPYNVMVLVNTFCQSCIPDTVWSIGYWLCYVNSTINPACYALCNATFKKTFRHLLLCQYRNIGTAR
Test: Positive allosteric modulation of human muscarinic acetylcholine receptor M4 expressed in CHOK1 cells assessed as increase in acetylcholine-induced […] preincubated for 4 mins followed by acetylcholine addition measured for 3.5 mins by FLIPR assay
Assay type: functional, cell-based

Structure (SMILES)	IP [µM]
Cc1cc2c(nc1N1CCC(Oc3ccc4c(n3)COC4)CC1)[C@H](CO)N(C)C2=O	30
Cc1cc2c(nc1N1CCC(Oc3cnc4[nH]nc(C)c4c3)CC1)CNC2=O	6.07
Cc1cc2c(nc1N1CCC(OC3CCOC3)CC1)CNC2=O (centres undefined)	11.3
COc1ccc(O[C@H]2CCN(c3nc4c(cc3C)C(=O)NC4)C[C@H]2C)cn1	30
CCN1C(=O)c2c(nc(N3CCC(Oc4ccc5c(c4)COC5)CC3)c(C)c2C)[C@@H]1CO	240
CCOc1ccc(OC2CCN(c3nc4c(cc3C)C(=O)N(C)[C@H]4CO)CC2)cn1	8.62
COCCOC1CCN(c2nc3c(cc2C)C(=O)NC3)CC1	11.2
COc1ccc(O[C@@H]2CCN(c3nc4c(cc3C)C(=O)N(C)[C@H]4CO)C[C@H]2F)cn1	8.06
Cc1cc2c(nc1N1CCC(OC[C@@]3(C)C[C@H]3C#N)CC1)CNC2=O	30
